The text below walks through data of ChEMBL document CHEMBL5653631, “A Potent and Selective ULK1 Inhibitor Suppresses Autophagy and Sensitizes Cancer Cells to Nutrient Stress” (iScience, 2018).

The structures appear in SMILES notation.

Test [1] concerns the target Death-associated protein kinase 1 (Homo sapiens) (UniProt P53355). Put plainly: Inhibition of human recombinant DAPK1 at 15 nM related to control ULK1.
The target in test [2] is Fibroblast growth factor receptor 3 (Homo sapiens) (UniProt P22607). Put plainly: Inhibition of human recombinant FGFR3 at 15 nM related to control ULK1.
For test [3], the target named is Cyclin-dependent kinase-like 1 (Homo sapiens) (UniProt Q00532). Put plainly: Inhibition of human recombinant CDKL1 at 15 nM related to control ULK1.
Test [4] deals with T1, Serine/threonine-protein kinase STK11 (Homo sapiens) (UniProt Q15831).
T1 sequence (whole entry): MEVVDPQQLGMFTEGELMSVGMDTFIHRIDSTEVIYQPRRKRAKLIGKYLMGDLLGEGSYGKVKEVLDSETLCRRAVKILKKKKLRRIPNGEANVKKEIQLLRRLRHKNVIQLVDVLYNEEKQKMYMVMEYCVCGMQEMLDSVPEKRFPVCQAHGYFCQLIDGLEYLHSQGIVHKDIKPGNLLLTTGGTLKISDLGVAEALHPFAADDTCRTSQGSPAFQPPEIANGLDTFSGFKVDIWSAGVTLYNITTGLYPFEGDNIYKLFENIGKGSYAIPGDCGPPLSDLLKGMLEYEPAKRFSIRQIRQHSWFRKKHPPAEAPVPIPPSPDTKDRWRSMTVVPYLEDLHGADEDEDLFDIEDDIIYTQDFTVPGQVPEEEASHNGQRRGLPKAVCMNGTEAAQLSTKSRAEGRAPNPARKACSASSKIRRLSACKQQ
Put plainly: Inhibition of human recombinant LKB1 at 15 nM related to control ULK1.

Test [5] has as its target T2, Dual specificity protein kinase TTK (Homo sapiens) (UniProt P33981).
T2 sequence (whole entry): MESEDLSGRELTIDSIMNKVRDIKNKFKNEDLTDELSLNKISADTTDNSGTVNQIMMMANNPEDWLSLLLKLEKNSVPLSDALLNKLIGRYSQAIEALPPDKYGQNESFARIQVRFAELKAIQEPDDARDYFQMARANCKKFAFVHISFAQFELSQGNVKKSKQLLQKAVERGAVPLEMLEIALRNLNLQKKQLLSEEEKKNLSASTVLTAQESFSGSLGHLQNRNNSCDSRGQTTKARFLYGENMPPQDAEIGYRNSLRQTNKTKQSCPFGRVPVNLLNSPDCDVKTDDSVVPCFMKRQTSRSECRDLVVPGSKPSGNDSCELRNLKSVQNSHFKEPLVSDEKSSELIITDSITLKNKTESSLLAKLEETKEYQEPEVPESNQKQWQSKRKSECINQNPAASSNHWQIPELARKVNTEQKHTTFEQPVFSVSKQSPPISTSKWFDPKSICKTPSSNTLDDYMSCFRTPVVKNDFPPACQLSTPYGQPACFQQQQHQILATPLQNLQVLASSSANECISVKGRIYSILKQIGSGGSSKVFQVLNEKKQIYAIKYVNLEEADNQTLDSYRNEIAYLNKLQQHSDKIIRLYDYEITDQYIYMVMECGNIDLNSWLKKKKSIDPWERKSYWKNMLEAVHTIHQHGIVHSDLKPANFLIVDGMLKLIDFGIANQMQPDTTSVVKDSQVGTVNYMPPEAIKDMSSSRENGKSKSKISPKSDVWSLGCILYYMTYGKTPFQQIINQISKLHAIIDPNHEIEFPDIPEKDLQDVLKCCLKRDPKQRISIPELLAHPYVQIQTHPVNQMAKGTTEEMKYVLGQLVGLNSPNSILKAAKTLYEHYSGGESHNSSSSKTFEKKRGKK
The experiment in a line: Inhibition of human recombinant TTK at 15 nM in presence of ATP by radiometric assay relative to control.

Test [6] deals with Wee1-like protein kinase 2 (Homo sapiens) (UniProt P0C1S8). Put plainly: Inhibition of human recombinant Wee1B at 15 nM in presence of ATP by radiometric assay relative to control.
For test [7], the target named is Fibroblast growth factor receptor 2 (Homo sapiens) (UniProt P21802). Put plainly: Inhibition of human recombinant FGFR2 at 15 nM related to control ULK1.
For test [8], the target named is BDNF/NT-3 growth factors receptor (Homo sapiens) (UniProt Q16620). Put plainly: Inhibition of human recombinant TRKB at 500 nM related to control ULK1.
Test [9] concerns the target T3, Serine/threonine-protein kinase ULK1 (Homo sapiens) (UniProt O75385).
T3 sequence (whole entry): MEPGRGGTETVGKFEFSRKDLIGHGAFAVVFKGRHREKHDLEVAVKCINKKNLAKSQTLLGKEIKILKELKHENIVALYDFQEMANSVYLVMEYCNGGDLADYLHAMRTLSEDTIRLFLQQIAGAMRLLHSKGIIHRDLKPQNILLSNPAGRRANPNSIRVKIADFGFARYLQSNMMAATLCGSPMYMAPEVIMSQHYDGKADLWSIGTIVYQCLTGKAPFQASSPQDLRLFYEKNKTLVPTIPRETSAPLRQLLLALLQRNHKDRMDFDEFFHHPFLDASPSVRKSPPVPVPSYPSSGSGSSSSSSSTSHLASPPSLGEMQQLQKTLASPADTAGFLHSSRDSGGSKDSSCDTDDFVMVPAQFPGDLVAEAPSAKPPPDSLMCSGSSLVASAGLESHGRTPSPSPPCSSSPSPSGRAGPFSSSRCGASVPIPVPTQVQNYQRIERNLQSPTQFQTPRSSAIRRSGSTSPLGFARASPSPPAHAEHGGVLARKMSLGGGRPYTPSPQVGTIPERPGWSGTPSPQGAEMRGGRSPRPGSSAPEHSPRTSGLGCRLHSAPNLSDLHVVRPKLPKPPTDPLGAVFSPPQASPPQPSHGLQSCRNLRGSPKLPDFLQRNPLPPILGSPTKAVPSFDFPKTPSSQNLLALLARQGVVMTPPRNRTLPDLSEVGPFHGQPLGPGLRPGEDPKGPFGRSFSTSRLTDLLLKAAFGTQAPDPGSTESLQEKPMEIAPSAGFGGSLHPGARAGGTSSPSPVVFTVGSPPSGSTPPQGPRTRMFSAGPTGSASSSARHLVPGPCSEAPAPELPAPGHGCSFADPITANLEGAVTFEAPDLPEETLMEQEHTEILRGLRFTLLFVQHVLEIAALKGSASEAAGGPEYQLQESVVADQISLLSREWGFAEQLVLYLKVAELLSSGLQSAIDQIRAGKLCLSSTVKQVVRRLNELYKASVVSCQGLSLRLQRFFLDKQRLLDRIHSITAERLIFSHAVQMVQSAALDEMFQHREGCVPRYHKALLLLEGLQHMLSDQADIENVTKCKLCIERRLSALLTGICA
The experiment in a line: Inhibition of human recombinant ULK1 at 500 nM in presence of ATP by radiometric assay relative to control.

For test [10], the target named is Serine/threonine-protein kinase NIM1 (Homo sapiens) (UniProt Q8IY84). The experiment in a line: Inhibition of human recombinant NIM1 at 500 nM related to control ULK1.
In test [11] the target is Mitogen-activated protein kinase 11 (Homo sapiens) (UniProt Q15759). Put plainly: Inhibition of human recombinant p38beta at 500 nM in presence of ATP by radiometric assay relative to control.
Mitogen-activated protein kinase 11 (Homo sapiens), sequence (Q15759 whole entry): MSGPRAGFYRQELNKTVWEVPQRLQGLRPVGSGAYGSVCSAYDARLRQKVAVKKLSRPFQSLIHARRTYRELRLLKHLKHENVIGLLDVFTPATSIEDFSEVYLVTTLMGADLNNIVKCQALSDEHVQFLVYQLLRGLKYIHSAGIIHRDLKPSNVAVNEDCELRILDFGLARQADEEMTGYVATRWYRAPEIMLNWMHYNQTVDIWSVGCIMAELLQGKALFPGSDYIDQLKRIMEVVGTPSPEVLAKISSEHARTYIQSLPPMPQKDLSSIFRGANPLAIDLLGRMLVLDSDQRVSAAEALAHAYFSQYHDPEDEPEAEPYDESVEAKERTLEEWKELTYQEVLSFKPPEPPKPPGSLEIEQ

Serine/threonine-protein kinase NIM1 (Homo sapiens), sequence (Q8IY84 whole entry): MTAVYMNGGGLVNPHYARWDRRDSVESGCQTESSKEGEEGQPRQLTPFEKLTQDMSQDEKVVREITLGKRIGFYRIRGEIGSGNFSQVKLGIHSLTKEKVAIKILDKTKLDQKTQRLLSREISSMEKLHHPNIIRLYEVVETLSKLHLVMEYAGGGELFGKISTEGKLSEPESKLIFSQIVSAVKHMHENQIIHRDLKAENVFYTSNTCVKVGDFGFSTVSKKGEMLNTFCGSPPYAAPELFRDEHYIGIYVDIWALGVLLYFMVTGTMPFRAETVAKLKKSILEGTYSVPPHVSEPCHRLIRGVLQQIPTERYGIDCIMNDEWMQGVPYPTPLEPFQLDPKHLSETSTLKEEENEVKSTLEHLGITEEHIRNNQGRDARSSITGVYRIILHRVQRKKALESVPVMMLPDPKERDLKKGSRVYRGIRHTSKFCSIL
Cyclin-dependent kinase-like 1 (Homo sapiens), sequence (Q00532 whole entry): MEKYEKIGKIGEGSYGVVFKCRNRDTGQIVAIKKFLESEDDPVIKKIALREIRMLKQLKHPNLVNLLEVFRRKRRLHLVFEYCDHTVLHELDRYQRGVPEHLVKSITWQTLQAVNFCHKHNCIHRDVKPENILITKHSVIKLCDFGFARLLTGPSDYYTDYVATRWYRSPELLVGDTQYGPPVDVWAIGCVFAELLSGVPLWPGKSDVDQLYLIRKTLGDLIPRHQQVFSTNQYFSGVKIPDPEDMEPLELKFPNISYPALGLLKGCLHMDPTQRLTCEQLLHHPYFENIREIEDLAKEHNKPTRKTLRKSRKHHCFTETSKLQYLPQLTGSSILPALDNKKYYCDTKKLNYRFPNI
Wee1-like protein kinase 2 (Homo sapiens), sequence (P0C1S8 whole entry, looked up): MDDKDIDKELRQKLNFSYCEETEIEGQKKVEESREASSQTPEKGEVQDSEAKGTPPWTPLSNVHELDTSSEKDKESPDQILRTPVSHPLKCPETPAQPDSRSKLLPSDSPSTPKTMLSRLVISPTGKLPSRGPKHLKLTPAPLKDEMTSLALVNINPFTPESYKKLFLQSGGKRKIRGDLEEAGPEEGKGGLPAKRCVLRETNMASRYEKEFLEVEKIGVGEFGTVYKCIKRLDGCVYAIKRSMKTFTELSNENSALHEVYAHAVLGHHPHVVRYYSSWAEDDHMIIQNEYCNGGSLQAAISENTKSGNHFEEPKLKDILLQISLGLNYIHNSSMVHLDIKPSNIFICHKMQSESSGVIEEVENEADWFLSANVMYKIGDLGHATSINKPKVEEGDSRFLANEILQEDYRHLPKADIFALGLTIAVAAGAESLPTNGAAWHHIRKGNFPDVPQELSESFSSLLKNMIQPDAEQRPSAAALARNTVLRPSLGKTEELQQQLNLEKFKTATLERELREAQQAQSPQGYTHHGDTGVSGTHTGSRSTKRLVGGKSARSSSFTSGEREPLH
Fibroblast growth factor receptor 3 (Homo sapiens), sequence (P22607 23-806 limits assumed): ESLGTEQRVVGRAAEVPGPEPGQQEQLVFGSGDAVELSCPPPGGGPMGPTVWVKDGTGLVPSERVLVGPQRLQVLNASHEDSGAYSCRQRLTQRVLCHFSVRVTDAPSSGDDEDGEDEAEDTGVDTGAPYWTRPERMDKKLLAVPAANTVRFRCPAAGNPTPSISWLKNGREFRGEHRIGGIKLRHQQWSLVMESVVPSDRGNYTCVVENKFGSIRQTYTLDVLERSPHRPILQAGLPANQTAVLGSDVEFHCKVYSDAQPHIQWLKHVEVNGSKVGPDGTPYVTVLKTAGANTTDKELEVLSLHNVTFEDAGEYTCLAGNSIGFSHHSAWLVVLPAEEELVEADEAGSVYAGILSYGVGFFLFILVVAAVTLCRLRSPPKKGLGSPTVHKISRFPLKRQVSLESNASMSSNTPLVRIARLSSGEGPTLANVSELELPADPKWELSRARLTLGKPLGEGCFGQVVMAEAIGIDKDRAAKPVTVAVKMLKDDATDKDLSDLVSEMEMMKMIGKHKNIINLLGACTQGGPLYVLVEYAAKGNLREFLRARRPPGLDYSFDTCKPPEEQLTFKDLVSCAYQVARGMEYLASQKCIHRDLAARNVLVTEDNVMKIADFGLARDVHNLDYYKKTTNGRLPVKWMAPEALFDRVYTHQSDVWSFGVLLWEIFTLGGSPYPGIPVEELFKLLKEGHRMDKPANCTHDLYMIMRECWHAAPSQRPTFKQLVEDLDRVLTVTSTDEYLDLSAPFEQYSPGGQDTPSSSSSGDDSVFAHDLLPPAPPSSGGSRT
Death-associated protein kinase 1 (Homo sapiens), sequence (P53355 whole entry, looked up): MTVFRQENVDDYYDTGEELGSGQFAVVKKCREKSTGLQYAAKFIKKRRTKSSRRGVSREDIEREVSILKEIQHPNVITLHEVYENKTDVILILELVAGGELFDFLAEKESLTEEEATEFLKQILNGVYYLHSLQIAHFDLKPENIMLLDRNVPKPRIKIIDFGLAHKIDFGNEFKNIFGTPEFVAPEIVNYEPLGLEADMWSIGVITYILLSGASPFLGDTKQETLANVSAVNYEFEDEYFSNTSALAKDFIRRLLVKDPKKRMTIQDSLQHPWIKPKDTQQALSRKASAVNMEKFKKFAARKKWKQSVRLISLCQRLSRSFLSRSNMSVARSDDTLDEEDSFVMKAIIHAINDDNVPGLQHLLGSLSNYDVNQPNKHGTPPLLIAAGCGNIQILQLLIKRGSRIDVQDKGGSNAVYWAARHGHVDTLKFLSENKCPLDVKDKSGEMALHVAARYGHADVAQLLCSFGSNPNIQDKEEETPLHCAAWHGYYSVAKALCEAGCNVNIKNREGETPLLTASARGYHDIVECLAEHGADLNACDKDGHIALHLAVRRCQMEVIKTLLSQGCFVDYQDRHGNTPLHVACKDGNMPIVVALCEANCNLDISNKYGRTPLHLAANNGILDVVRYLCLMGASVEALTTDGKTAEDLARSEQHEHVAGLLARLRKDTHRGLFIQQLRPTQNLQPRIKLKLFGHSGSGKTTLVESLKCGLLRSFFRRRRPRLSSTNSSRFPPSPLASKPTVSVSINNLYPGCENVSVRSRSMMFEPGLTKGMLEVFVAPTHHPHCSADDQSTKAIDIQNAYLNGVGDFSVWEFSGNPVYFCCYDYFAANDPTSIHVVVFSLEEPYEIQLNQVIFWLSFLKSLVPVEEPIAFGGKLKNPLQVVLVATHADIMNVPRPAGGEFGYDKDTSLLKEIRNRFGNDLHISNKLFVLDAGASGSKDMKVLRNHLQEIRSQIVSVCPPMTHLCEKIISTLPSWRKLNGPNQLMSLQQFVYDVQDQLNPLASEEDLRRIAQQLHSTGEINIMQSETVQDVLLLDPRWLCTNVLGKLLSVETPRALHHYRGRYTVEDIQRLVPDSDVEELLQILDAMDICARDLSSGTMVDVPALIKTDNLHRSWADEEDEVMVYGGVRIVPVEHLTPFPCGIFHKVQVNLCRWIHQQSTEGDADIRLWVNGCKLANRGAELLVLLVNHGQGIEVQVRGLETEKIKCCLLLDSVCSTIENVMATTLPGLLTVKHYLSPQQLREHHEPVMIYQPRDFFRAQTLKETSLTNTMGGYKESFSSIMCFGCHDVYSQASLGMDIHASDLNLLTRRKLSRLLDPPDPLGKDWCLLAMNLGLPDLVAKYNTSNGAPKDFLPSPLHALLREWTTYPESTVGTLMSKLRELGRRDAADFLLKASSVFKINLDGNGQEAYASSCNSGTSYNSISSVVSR
Fibroblast growth factor receptor 2 (Homo sapiens), sequence (P21802 22-821 limits assumed): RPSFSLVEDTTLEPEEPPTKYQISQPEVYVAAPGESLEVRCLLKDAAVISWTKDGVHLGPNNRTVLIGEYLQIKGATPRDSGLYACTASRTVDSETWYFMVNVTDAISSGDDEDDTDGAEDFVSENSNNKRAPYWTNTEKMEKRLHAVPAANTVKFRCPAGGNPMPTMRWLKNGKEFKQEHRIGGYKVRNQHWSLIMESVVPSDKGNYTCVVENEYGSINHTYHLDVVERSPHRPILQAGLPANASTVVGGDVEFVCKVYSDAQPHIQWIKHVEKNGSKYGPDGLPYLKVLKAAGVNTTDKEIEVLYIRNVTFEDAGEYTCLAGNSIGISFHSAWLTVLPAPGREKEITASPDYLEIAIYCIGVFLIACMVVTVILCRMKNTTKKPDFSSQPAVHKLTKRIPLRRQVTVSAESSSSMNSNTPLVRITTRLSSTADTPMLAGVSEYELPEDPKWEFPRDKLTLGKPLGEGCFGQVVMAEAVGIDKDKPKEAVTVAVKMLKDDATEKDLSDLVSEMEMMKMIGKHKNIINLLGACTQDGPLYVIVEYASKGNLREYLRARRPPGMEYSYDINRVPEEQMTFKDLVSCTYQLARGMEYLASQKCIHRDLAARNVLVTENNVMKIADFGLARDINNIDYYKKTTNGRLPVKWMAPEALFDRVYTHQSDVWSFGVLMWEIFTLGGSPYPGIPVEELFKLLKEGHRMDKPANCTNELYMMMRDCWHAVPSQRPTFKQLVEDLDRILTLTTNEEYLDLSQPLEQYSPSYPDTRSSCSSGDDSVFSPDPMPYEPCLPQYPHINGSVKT

Turning to `CC(C)[C@H](NC(=O)c1cc(-c2cnn3cc(-c4ccc(OCCN5CCCCC5)cc4)cnc23)cs1)C(F)(F)F`, the fold change (FC) in test [1] turned out to be 0.05; in test [2], 0; in [3], 0.27; in test [4], 0; in [7], 0. The values for the inhibition in [5] and in test [6] were 22% and 11%, respectively.
Regarding `CNC(=O)c1ccccc1Oc1nc(Nc2cc(OC)c(OC)c(OC)c2)ncc1Br`, the fold change (FC) was determined as 0.65 in [8] and 0 in test [10]. In addition, the inhibition (as a rule, the percentage by which the read-out fell short of the control) came out at 74% in test [9] and 2% in [11].
